What was measured:
[1] = test system: Rat; test: concentration in plasma after dosing; details: 20 min; dosed: 1-Chloro-2-propanol; 7.5 mg/kg; oral; Female; F344
[2] = test system: Rat; test: concentration in plasma after dosing; details: dosed: 1-Chloro-2-propanol, 15 mg/kg, oral, Female, F344
[3] = test system: Rat; test: concentration in plasma after dosing; details: dosed: 1-Chloro-2-propanol, 7.5 mg/kg, oral, Male, F344
[4] = test system: Rat; test: concentration in plasma after dosing; details: dosed: 1-Chloro-2-propanol, 7.5 mg/kg, oral, Male, F344; remark: listed apart in the source
[5] = test system: Rat; test: concentration in plasma after dosing; details: dosed: 1-Chloro-2-propanol, 15 mg/kg, oral, Male, F344
[6] = test system: Rat; test: concentration in plasma after dosing; details: dosed: 1-Chloro-2-propanol, 15 mg/kg, oral, Male, F344; remark: listed apart in the source
[7] = test system: Rat; test: concentration in plasma after dosing; details: dosed: 1-Chloro-2-propanol, 15 mg/kg, oral, Female, Harlan Sprague-Dawley
[8] = test system: Rat; test: concentration in plasma after dosing; details: dosed: 1-Chloro-2-propanol, 15 mg/kg, oral, Female, F344; remark: listed apart in the source
[9] = test system: Rat; test: concentration in plasma after dosing; details: dosed: 1-Chloro-2-propanol, 15 mg/kg, oral, Female, F344; remark: listed apart in the source
[10] = test system: Rat; test: concentration in plasma after dosing; details: 40 min; dosed: 1-Chloro-2-propanol; 7.5 mg/kg; oral; Male; F344
[11] = test system: Rat; test: concentration in plasma after dosing; details: dosed: 1-Chloro-2-propanol, oral
[12] = test system: Rat; test: concentration in plasma after dosing; details: dosed: 1-Chloro-2-propanol, 15 mg/kg, oral, Female, Harlan Sprague-Dawley; remark: listed apart in the source
[13] = test system: Rat; test: concentration in plasma after dosing; details: 10 min; dosed: 1-Chloro-2-propanol; 7.5 mg/kg; oral; Female; F344
[14] = test system: Rat; test: concentration in plasma after dosing; details: dosed: 1-Chloro-2-propanol, 7.5 mg/kg, oral, Male, F344; remark: listed apart in the source
[15] = test system: Rat; test: concentration in plasma after dosing; details: dosed: 1-Chloro-2-propanol, 7.5 mg/kg, oral, Male, F344; remark: listed apart in the source
[16] = test system: Rat; test: concentration in plasma after dosing; details: dosed: 1-Chloro-2-propanol, 15 mg/kg, oral, Female, F344; remark: listed apart in the source
[17] = test system: Rat; test: concentration in plasma after dosing; details: dosed: 1-Chloro-2-propanol, 15 mg/kg, oral, Female, Harlan Sprague-Dawley; remark: listed apart in the source
[18] = test system: Rat; test: concentration in plasma after dosing; details: dosed: 1-Chloro-2-propanol, 7.5 mg/kg, oral, Male, F344; remark: listed apart in the source
[19] = test system: Rat; test: concentration in plasma after dosing; details: dosed: 1-Chloro-2-propanol, 7.5 mg/kg, oral, Female, F344
[20] = test system: Rat; test: concentration in plasma after dosing; details: dosed: 1-Chloro-2-propanol, 15 mg/kg, oral, Male, F344; remark: listed apart in the source
[21] = test system: Rat; test: concentration in plasma after dosing; details: dosed: 1-Chloro-2-propanol, 7.5 mg/kg, oral, Male, F344; remark: listed apart in the source
[22] = test system: Rat; test: concentration in plasma after dosing; details: dosed: 1-Chloro-2-propanol, 15 mg/kg, oral, Male, F344; remark: listed apart in the source
[23] = test system: Rat; test: concentration in plasma after dosing; details: dosed: 1-Chloro-2-propanol, 7.5 mg/kg, oral, Male, F344; remark: listed apart in the source
[24] = test system: Rat; test: concentration in plasma after dosing; details: dosed: 1-Chloro-2-propanol, 7.5 mg/kg, oral, Female, F344; remark: listed apart in the source
[25] = test system: Rat; test: concentration in plasma after dosing; details: dosed: 1-Chloro-2-propanol, 7.5 mg/kg, oral, Female, F344; remark: listed apart in the source
[26] = test system: Rat; test: concentration in plasma after dosing; details: 40 min; dosed: 1-Chloro-2-propanol; 15 mg/kg; oral; Male; F344
[27] = test system: Rat; test: concentration in plasma after dosing; details: dosed: 1-Chloro-2-propanol, 7.5 mg/kg, oral, Female, F344; remark: listed apart in the source
[28] = test system: Rat; test: concentration in plasma after dosing; details: dosed: 1-Chloro-2-propanol, 15 mg/kg, oral, Female, Harlan Sprague-Dawley; remark: listed apart in the source
[29] = test system: Rat; test: concentration in plasma after dosing; details: 0.5 h; dosed: 1-Chloro-2-propanol; 7.5 mg/kg; oral; Female; F344
[30] = test system: Rat; test: concentration in plasma after dosing; details: 0.5 h; dosed: 1-Chloro-2-propanol; 7.5 mg/kg; oral; Female; F344; remark: listed apart in the source
[31] = test system: Rat; test: concentration in urine after dosing; details: dosed: dibromoacetic acid, 40 mg/kg, oral, Male, F344
[32] = test system: Rat; test: concentration in urine after dosing; details: dosed: dibromoacetic acid, 40 mg/kg, oral, Male, F344; remark: listed apart in the source
[33] = test system: Rat; test: concentration in urine after dosing; details: dosed: dibromoacetic acid, 100 mg/kg, oral, Male, F344
[34] = test system: Rat; test: concentration in urine after dosing; details: dosed: dibromoacetic acid, oral, Male, F344
[35] = test system: Rat; test: concentration in urine after dosing; details: dosed: dibromoacetic acid, 100 mg/kg, oral, Male, F344; remark: listed apart in the source

CC(O)CCl (stereo not given) [1-Chloro-2-propanol]
Details | concentration in plasma [µg/mL]
[1] | 0.83
[10] | 0.81
[13] | 1.45
[26] | 2.74
[29] | 0.73
[30] | 0.74

Details | concentration in plasma [µg/mL]
[2], 1 h | 0.63
[2], 5 min | 6.88
[3], 0.5 h | 1.04
[3], 2 h | 0.075
[4], 5 min | 1.6
[4], 40 min | 0.75
[5], 1 h | 0.94
[5], 5 min | 6.12
[6], 1 h | 1.02
[6], 5 min | 3.02
[7], 1.5 h | 0.78
[7], 20 min | 4.59
[8], 2 h | 0.112
[8], 10 min | 4.73
[9], 2 h | 0.072
[9], 10 min | 6.2
[12], 1.5 h | 0.354
[12], 20 min | 6.3
[14], 1.5 h | 0.108
[14], 20 min | 1.27
[15], 1 h | 0.195
[15], 10 min | 1.4
[16], 1 h | 0.897
[16], 5 min | 4.66
[17], 0.5 h | 3.97
[17], 2.5 h | 0.079
[18], 1 h | 0.393
[18], 10 min | 0.9
[19], 5 min | 2.36
[19], 40 min | 0.72
[20], 2 h | 0.131
[20], 10 min | 6.07
[21], 1.5 h | 0.144
[21], 20 min | 0.96
[22], 2 h | 0.203
[22], 10 min | 6.46
[23], 0.5 h | 1.36
[23], 2 h | 0.056
[24], 1 h | 0.133
[24], 10 min | 1.26
[25], 1.5 h | 0.081
[25], 20 min | 0.74
[27], 5 min | 1.17
[27], 40 min | 0.213
[28], 0.5 h | 4.68
[28], 2.5 h | 0.071

concentration in plasma [µg/mL], [11]
Details | 0.5 h | 1 h | 1.5 h | 2 h | 2.5 h | 3 h | 5 min | 10 min | 20 min | 40 min
7.5 mg/kg, Female, F344 | 0.479 | 0.138 | – | – | – | – | 1.92 | 1.89 | 1.66 | 0.534
7.5 mg/kg, Male, F344 | 0.74 | 0.334 | 0.117 | 0.07 | – | – | 1.66 | 1.83 | 1.03 | 0.638
15 mg/kg, Female, F344 | – | 0.677 | – | 0.127 | – | – | 3.36 | 3.86 | 3.18 | –
15 mg/kg, Female, Harlan Sprague-Dawley | 3.27 | – | 0.768 | – | 0.069 | 0.059 | – | – | 3.02 | 4.11
15 mg/kg, Male, F344 | – | 0.92 | – | 0.159 | – | 0.107 | 1.7 | 5.37 | – | 3.3

O=CC(=O)O [Glyoxylic acid]
concentration in urine [µg/mL]
Details | 0 h | 2 h | 4 h | 8 h | 24 h | 48 h
[31] | 22.3 | – | – | 20.7 | 36.1 | 34.3
[32] | 18.4 | 11.9 | – | – | 35.6 | 37.9
[33] | 16.1 | – | 25.1 | – | 30.9 | 34.3
[35] | 27.4 | 20.7 | 28.6 | 31.2 | 28.8 | 47.9

concentration in urine [µg/mL], [34]
Details | 0 h | 4 h | 8 h | 24 h | 48 h
40 mg/kg | 29.8 | 13.2 | 27 | 31.8 | 26.3
100 mg/kg | 20.5 | 25.6 | – | 30.4 | 54.8

Reference: EPA's CvTdb concentration-time database
